These results are taken from PMC10363981, “Optimizing the enzymatic release of MMAE from isoDGR-based small molecule drug conjugate by incorporation of a GPLG-PABC enzymatically cleavable linker” (Frontiers in Pharmacology, 2023).

Test [1] concerns A549 human lung cancer cells. In words: In vitro antiproliferative activity, MTT, 72 h continuous treatment (no-washout). Type of test: cell-based. The procedure: (§1) U87MG human malignant glioma, SK-MEL-28 human melanoma, SK-OV-3 human ovarian cancer, and A549 human lung cancer cell lines were purchased from ATCC. The cells were cultured in Dulbecco’s Modified Eagle’s Medium (DMEM; Biosera, Nuaille, France), supplemented with 10% heat-inactivated Fetal Bovine Serum (FBS; Biosera), and with 1% Penicillin/Streptomycin (Biosera). Cells were cultured in sterile T75 flasks with ventilation cap (Sarstedt, Nümbrecht, Germany) at 37 °C in a humidified atmosphere with 5% CO2 in ESCO CelCulture Incubator (ESCO, Friedberg, Germany). Manipulations with the cells were performed in biosafety cabinet (laminar) ESCO Sentinel Gold class II model AC2-4E8 (ESCO).
(§2) After standard trypsinization and harvesting cells by trypsin (Biosera), ethylenediaminetetraacetic acid (EDTA; Biosera) and PBS solution, 6×10^3 cells per well were seeded in serum containing (10%) growth medium to 96-well plates with flat bottom (Eppendorf, Hamburg, Germany), in a 100 μL volume per well, and incubated at 37°C.
(§3) In the wash out experiment, cells were incubated with the compounds (5% serum final) for 30 min, then they were washed out, and additionally incubated in growth medium (5% serum final) up to 72 h. The control wells were treated only with serum free medium (5% serum final).
(§4) For the evaluation of the in vitro antiproliferative activity of compounds, the cell viability was determined by MTT assay (3-(4,5-dimethylthiazol-2-yl)-2,5-diphenyl-tetrazolium bromide) obtained from Duchefa Biochemie (Haarlem, Netherlands).
(§5) 22 µL of MTT solution (5 mg/mL in PBS, 0.5 mg/mL final) was added to each well and after 2 h incubation at 37°C, the supernatant was removed. […] Average background absorbance (DMSO-Ethanol) was subtracted from absorbance values of control and treated wells, and cell viability was determined relative to untreated (control) wells where cell viability was arbitrarily set to 100%. […] The experiments were done in triplicate and each experiment was repeated three times.

For test [2], the system named is SK-OV-3 human ovarian cancer cells. Described as above. In kind it is cell-based. The procedure: as §1, §2, §3, §4, §5
Test [3] has as its system U87MG human malignant glioma cells. The test is described as above. Type of test: cell-based. The procedure:
as §1, §2
(§6) […] The control wells were treated only with serum free medium (5% serum final).
as §4, §5

Test [4] concerns SK-MEL-28 human melanoma cells. The test is described as above. In kind it is cell-based. The procedure:
as §1, §2, §6, §4, §5

In a further test the test system is SK-MEL-28 cells. In words: In vitro antiproliferative activity in the presence of MMP-2 inhibitor. Type of test: cell-based, human. The note with it: 16 h pre-incubation with MMP-2 inhibitor 10 µM, then 72 h continuous treatment, 5% serum final; average ± SD, triplicate; read-out: IC50 MMP-2 inhibitor + Treatment 72 h SK-MEL-28 (αVβ3 +). The procedure: as §4
(§7) 22 µL of MTT solution (5 mg/mL in PBS, 0.5 mg/mL final) was added to each well and after 2 h incubation at 37°C, the supernatant was removed. The precipitated purple formazan crystals were dissolved in 100 µL of a 1:1 solution of dimethylsulfoxide (DMSO; Merck, St. Louis, MO, United States): 96% Ethanol (Molar Chemicals Kft., Halásztelek, Hungary) and the absorbance was measured after 15 min at λ = 570 nm by using microplate reader CLARIOstar Plus (BMG Labtech, Ortenberg, Germany). Average background absorbance (DMSO-Ethanol) was subtracted from absorbance values of control and treated wells, and cell viability was determined relative to untreated (control) wells where cell viability was arbitrarily set to 100%. Absorbance values of treated samples were normalized versus untreated control samples and interpolated by nonlinear regression analysis with GraphPad Prism 6 software (GraphPad, La Jolla, San Diego, CA, United States) to generate sigmoidal dose-response curves from which the 50% inhibitory concentration (IC50) values of the compounds were calculated and presented as nanomolar (nM) units. The experiments were done in triplicate and each experiment was repeated three times.
(§8) The conjugate 2 and the free MMAE were tested in presence of the MMP-2 inhibitor cis-9-octadecenoyl-N-hydroxylamine (Merck) dissolved in DMSO ([You et al., 2018]). The three αVβ3 integrin and MMP-2 overexpressing cancer cell lines (U87MG, SK-MEL-28, […]) were seeded with serum containing medium ([Ellijimi et al., 2018]; [Shim et al., 2019]) and, after 8 h, were washed-out. Then, 100 µL per well of MMP-2 inhibitor (10 µM final concentration) were added and cells were incubated for 16 h, prior to the treatment. Later, the conjugate 2 and free MMAE were dissolved in 10% serum containing medium and added to reach the same concentrations evaluated in the previous test in a final volume of 100 µL per well and incubated (5% serum final) continuously for 72 h of the treatment. The experiments were performed in triplicate.

A further test concerns SK-OV-3 cells. The test is described as above. Type of test: cell-based, human. The note with it: 16 h pre-incubation with MMP-2 inhibitor 10 µM, then 72 h continuous treatment, 5% serum final; average ± SD, triplicate; read-out: IC50 MMP-2 inhibitor + Treatment 72 h SK-OV-3 (αVβ3 +). The procedure:
as §4, §7, §8

Another test relates to U87MG cells. The description is as above. In kind it is cell-based, human. The conditions noted are these: 16 h pre-incubation with MMP-2 inhibitor 10 µM, then 72 h continuous treatment, 5% serum final; average ± SD, triplicate; read-out: IC50 MMP-2 inhibitor + Treatment 72 h U87MG (αVβ3 +). The procedure:
as §4, §7, §8

Where [5] appears, read: relative potency = ratio of IC50 of 2 vs MMAE, 72 h no washout.
Setting [6] is: MTT, 72 h continuous treatment, no washout, 5% serum final, triplicate, repeated three times.

Regarding `CC[C@H](C)[C@@H]([C@@H](CC(=O)N1CCC[C@H]1[C@H](OC)[C@@H](C)C(=O)N[C@H](C)[C@@H](O)c1ccccc1)OC)N(C)C(=O)[C@@H](NC(=O)[C@H](C(C)C)N(C)C(=O)OCc1ccc(NC(=O)CNC(=O)[C@H](CC(C)C)NC(=O)[C@@H]2CCCN2C(=O)CNC(=O)CCc2cn(CCOCCOCCOCCOCC(=O)NCc3ccc(CN4C(=O)[C@H]5CC(=O)N[C@H](C(=O)O)CC(=O)NCC(=O)N[C@@H](CCCNC(=N)N)C(=O)NC[C@H]4C(=O)N5)cc3)nn2)cc1)C(C)C` [compound 2, cyclo[DKP-isoDGR]-PEG4-GPLG-PABC-MMAE], the IC50 (in general, the concentration needed to halve the response being measured) in test [1] (MTT, 72 h continuous treatment, no washout, 5% serum final, αVβ3 low expressing line, triplicate, repeated three times) was 20.8 ± 1.8 nM; in test [2] (setting [6]), 3.7 ± 0.3 nM; in test [3] (setting [6]), 7.5 ± 0.9 nM; in test [4] (setting [6]) it was 70.4 ± 7.1 nM; in the test on SK-MEL-28 cells it was 28.7 nM; in the test on SK-OV-3 cells, 3.2 nM. The half-maximal inhibitory concentration (IC50) with U87MG cells worked out at 7.4 nM. Besides, the “RP [SMDC (2)/MMAE] A549” value in test [1] (setting [5]) amounted to 302.32. Moreover, the “RP [SMDC (2)/MMAE] SK-OV-3” value in test [2] (setting [5]) came to 120.52. The “RP [SMDC (2)/MMAE] U87MG” value in test [3] (setting [5]) was determined as 33.30. Further, the “RP [SMDC (2)/MMAE] SK-MEL-28” value in test [4] (setting [5]) worked out at 29.49.
